This test concerns the target T1, BRSK2 (Homo sapiens, UniProt Q8IWQ3).
T1 construct: purchased Thermo Fisher Scientific (Life Technologies) SelectScreen
Nature of the test: SelectScreen LanthaScreen. It is filed as binding. The note with it: read-out: % displacement. The method, boiled down: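 Percent values come from Thermo SelectScreen profiling of NU5455, combining activity and binding assays. CSF1R was run in Z'LYTE format at Km app ATP, and CAMK1 in Adapta format with ATP listed at 10.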
(In general: TR-FRET usually uses a lanthanide donor and a delayed reading to cut background.)

T1 sequence (Q8IWQ3 whole entry): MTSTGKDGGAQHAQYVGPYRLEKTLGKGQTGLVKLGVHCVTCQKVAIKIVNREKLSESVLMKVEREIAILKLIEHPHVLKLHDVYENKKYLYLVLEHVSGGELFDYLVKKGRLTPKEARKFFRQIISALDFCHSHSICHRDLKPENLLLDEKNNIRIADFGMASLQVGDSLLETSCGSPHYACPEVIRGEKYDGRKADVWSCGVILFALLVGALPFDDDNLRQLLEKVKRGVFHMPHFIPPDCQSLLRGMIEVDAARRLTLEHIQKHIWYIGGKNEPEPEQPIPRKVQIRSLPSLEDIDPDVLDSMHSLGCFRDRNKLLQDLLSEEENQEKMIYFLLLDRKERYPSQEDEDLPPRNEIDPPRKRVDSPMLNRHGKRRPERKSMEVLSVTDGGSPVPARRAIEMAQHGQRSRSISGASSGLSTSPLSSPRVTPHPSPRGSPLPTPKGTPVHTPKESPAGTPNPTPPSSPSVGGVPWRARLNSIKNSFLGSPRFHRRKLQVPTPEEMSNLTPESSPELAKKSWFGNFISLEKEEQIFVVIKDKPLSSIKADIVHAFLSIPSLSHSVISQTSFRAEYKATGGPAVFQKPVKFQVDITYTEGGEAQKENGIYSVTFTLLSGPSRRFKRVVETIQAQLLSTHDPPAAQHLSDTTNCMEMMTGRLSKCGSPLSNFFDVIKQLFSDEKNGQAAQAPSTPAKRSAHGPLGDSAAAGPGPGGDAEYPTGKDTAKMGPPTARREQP

As for `CN(C(=O)CN1CCOCC1)c1ccc2sc3c(-c4cccc5c(=O)cc(N6CC7CCC(C6)O7)oc45)cccc3c2c1` [NU5455], the inhibition at 1 µM came out at 1.2%.

For the origin of these results see article PMC6934184, “Selective DNA-PKcs inhibition extends the therapeutic index of localized radiotherapy and chemotherapy” (The Journal of Clinical Investigation, 2019).
